One may read the EC50 as the concentration that produces a half-maximal response. A low value points to a more potent agent.

The results in this text go back to US20250154123A1, “COOLING COMPOUNDS AND COMPOSITIONS” (V. MANE FILS, priority 2022, published 2025).

Assay [1] addresses T1, hTRPM8 ion channel (Homo sapiens, UniProt Q7Z2W7).
T1 construct: expressed in transfected cells; host or cells: CHO-KJ cells [sic]
Description: Primary in vitro screening on hTRPM8 (CHO-KJ cells, FLUO-8 calcium fluorometry, relative to icilin). The format is cell-based. The following applies: for % activation vs iciline: CHO-KJ cells expressing hTRPM8; for activation on hTRPM8 compared with comparative molecules (Physcool, WS-5, WS-3, l-isopulegol, l-menthol, menthyl lactate): primary screening, Table 1. The protocol:
(§1) The compounds were evaluated in vitro on CHO-KJ cells expressing the gene encoding the hTRPM8 ion channel (Table 1). Channel activation is determined by fluorometric measurement of […] calcium using FLUO-8. The activity of the compounds was measured relative to icilin (known hTRPM8 agonist).

Assay [2] in a line: Organoleptic evaluation in still water by a trained panel (cooling intensity over time). In kind it is in vivo, human. From the text:
Inventive compounds 1, 2 and 5 were organoleptically evaluated in still water by a trained panel. […] […] These inventive compounds appear to behave similarly to the comparative compounds.

Assay [3] addresses T2, hTRPM8 (Homo sapiens, UniProt Q7Z2W7).
T2 construct: expressed in transfected cells; host or cells: CHO-KJ cells [sic]
Description: EC50 measurement on hTRPM8 (response curve). The format is cell-based. Particulars: for EC50 on hTRPM8 compared with WS-3 and WS-5: Table 3; for EC50: hTRPM8, response curve. Here is the method:
as §1
A response curve was developed for compounds 1, 3, 5 and 37 which made it possible to determine the EC50 (half maximal effective concentration) values on hTRPM8 and compare them with the EC50 values of the comparative compounds (Table 3).

The target of assay [4] is T2, hTRPM8. As to the kind of experiment: Secondary in vitro screening on hTRPM8 at 5 μM versus WS-3. In kind it is cell-based. Particulars: WS3 as reference compound. Here is the method:
as §1
The compounds 1 to 40 were tested on hTRPM8 at 5 μM using WS3 as the reference compound (Table 2).

Assay [5] is described as follows: Chewing gum evaluation protocol, cooling intensity rated 0-10 by 6 trained panelists over 10 min. In kind it is in vivo, human. The following applies: 0.20 wt % in chewing gum, chewed 10 min, 6 panelists. Here is the method:
An unflavored chewing gum paste was prepared using the following formulation: Sorbitol (52.4 wt %), gum base (30.0 wt %), maltitol syrup (7.0 wt %), glycerine (5.0 wt %), mannitol (5.0 wt %), soy lecithin (0.4 wt %), acesulfame-K (0.1 wt %), and aspartame (0.1 wt %). The paste was warmed 1-2 min using a micro-wave to soften the mixture. After adding the cooling agent (0.20 wt % Compound 1), the paste was kneaded to homogenise the product. Then the paste is stretched using a sheeter, flatted at 2 mm thick, and cut in regular rectangular pieces (12×42 mm). Chewing-gums pieces are packed in plastic bag and put 1 week at room temperature to let them stabilise. Comparative chewing gum samples (A-C) were also prepared using 0.26 wt % PHYSCOOL™; 0.21 wt % WS-3™; and 0.17 wt % WS-23™, respectively.
A chewing gum evaluation protocol was performed by 6 trained panelists, where the chewing gum was chewed for 10 min while holding the panelist's mouth closed. The cooling intensity was rated from 0 (not perceived) to 10 (very intense) at 5 sec, 15 sec, 30 sec, 45 sec, 1 min, 1.5 min, 2 min, and then every minute until 10 minutes.

T2 sequence (Q7Z2W7 whole entry): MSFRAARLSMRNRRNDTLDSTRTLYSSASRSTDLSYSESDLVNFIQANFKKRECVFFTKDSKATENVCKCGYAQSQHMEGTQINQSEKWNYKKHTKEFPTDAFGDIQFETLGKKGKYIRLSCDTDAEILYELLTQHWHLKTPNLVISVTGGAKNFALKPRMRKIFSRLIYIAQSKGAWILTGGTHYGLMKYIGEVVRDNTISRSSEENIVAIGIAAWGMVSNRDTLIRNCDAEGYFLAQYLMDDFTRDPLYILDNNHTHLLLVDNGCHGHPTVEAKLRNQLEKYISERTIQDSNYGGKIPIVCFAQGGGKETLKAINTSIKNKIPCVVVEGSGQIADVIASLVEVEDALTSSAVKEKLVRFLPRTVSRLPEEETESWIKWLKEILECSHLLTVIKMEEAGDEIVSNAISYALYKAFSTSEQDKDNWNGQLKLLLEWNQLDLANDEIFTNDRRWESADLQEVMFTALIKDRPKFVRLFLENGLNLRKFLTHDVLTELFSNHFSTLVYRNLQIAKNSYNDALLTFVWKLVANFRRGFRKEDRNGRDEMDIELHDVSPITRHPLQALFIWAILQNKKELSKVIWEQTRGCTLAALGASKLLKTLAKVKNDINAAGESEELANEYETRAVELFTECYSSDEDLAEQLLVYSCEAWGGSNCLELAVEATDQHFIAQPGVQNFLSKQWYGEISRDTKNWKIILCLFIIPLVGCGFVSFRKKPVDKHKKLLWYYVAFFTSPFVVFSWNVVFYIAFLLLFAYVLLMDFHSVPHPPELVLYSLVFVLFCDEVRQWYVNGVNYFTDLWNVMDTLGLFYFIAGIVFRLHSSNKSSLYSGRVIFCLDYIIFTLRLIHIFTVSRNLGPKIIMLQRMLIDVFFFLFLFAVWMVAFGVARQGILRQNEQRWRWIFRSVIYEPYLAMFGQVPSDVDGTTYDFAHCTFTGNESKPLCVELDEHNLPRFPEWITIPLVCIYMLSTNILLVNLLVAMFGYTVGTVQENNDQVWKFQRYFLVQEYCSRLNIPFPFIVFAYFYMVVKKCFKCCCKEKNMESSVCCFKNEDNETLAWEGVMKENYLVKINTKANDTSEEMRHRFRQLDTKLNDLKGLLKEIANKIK
T1 sequence (Q7Z2W7 whole entry): as above

Regarding `CC(C)[C@@H]1CC[C@@H](C)CC1(CO)CO` [Compound 1, ((2S,5R)-2-isopropyl-5-methylcyclohexane-1,1-diyl)dimethanol], the “% activation vs iciline” value in assay [1] (concentration 156 μM) is on record as 199%. Besides, in assay [1], the “activation on hTRPM8 compared with comparative molecules (Physcool, WS-5, WS-3, l-isopulegol, l-menthol, menthyl lactate)” value is recorded as “greater activations than the comparative molecules”. Besides, the “cooling effect versus Physcool” value in assay [2] (equimolar, larger panel, over 10 min, FIG. 3) is listed as “persistent cooling effect similar to Physcool® but with a greater intensity”. Moreover, the “freshness in the mouth” value in assay [2] (still water, trained panel) is “freshness in the mouth with both an attack and a good persistence”. Besides, in assay [3], the “EC50 on hTRPM8 compared with WS-3 and WS-5” value was “EC50 values lower than WS-3™ and similar to WS-5™”; the EC50 came out at 4.6 µM. Also, the activation at 5 µM in assay [4] was determined as 99%. Further, the “duration of cooling intensity in chewing gum, similar to WS-3 (0.21 wt %) and WS-23 (0.17 wt %)” value in assay [5] is “long cooling intensity out to 10 minutes”. The “cooling intensity and duration in chewing gum versus Comparative Sample A (0.26 wt % PHYSCOOL)” value in assay [5] (average) is “more initial cooling intensity and longer lasting duration than Comparative Sample A”.

For the compound `CC1OCC2(CO1)C[C@H](C)CC[C@H]2C(C)C` (stereo partly drawn) [Compound 2, (7S,1OR)-7-isopropyl-3,10-dimethyl-2,4-dioxaspiro[5.5]undecane], the “% activation vs iciline” value in assay [1] (concentration 109 μM) is 26%. The activation at 5 µM in assay [4] worked out at 3%.

Regarding `CC(C)[C@@H]1CC[C@@H](C)CC12COC(C)(C)OC2` [Compound 3, (7S,1OR)-7-isopropyl-3,3,10-trimethyl-2,4-dioxaspiro[5.5]undecane], the “% activation vs iciline” value in assay [1] (concentration 104 μM) was 99%. The “activation on hTRPM8 compared with comparative molecules (Physcool, WS-5, WS-3, l-isopulegol, l-menthol, menthyl lactate)” value in assay [1] is on record as “greater activations than the comparative molecules”. Further, in assay [3], the “EC50 on hTRPM8 compared with WS-3 and WS-5” value was “EC50 values lower than WS-3™ and similar to WS-5™”; the midpoint of the response, the EC50, lay at 2.5 µM. The activation at 5 µM in assay [4] came to 94%.

For the compound `CCC1OCC2(CO1)C[C@H](C)CC[C@H]2C(C)C` (stereo partly drawn) [Compound 4, (7S,1OR)-3-ethyl-7-isopropyl-10-methyl-2,4-dioxaspiro[5.5]undecane], in assay [1] (concentration 101 μM), the “% activation vs iciline” value was 39%. Further, the activation at 5 µM in assay [4] is -1%.

As for `COc1cc(C2OCC3(CO2)C[C@H](C)CC[C@H]3C(C)C)ccc1O` (stereo partly drawn) [Compound 5, 4-((7S,10R)-7-isopropyl-10-methyl-2,4-dioxaspiro[5.5]undecan-3-yl)-2-methoxyphenol], the “% activation vs iciline” value in assay [1] (concentration 96 μM) is on record as 176%. In assay [1], the “activation on hTRPM8 compared with comparative molecules (Physcool, WS-5, WS-3, l-isopulegol, l-menthol, menthyl lactate)” value is “greater activations than the comparative molecules”. The compound further gave an EC50 in assay [3] of 39 µM. Besides, the activation at 5 µM in assay [4] was determined as 16%.

As for `CC(C)[C@@H]1CC[C@@H](C)CC12COCOC2` [Compound 6, (7S,1OR)-7-isopropyl-10-methyl-2,4-dioxaspiro[5.5]undecane], the “% activation vs iciline” value in assay [1] (concentration 104 μM) is 32%. Further, in assay [4], the activation at 5 µM stood at 3%.

With `CSCCC1OCC2(CO1)C[C@H](C)CC[C@H]2C(C)C` (stereo partly drawn) [Compound 25, (7S,1OR)-7-isopropyl-10-methyl-3-(2-(methylthio)ethyl)-2,4-dioxaspiro [5.5]undecane], the activation at 5 µM in assay [4] was 3%.

Consider `CC1OCC2(CCCC(C)(C)C2)CO1` (stereo not drawn) [Compound 26, 3,8,8-trimethyl-2,4-dioxaspiro[5.5]undecane], for which the activation at 5 µM in assay [4] was 3%.

As to `CCC(C)C1CCCCC1(CO)CO` (stereo not drawn) [Compound 27, (2-(sec-butyl)cyclohexane-1,1-diyl)dimethanol], in assay [4], the activation at 5 µM amounted to 40%.

As to `CCOC(=O)C1OCC2(CO1)C[C@H](C)CC[C@H]2C(C)C` (stereo partly drawn) [Compound 28, Ethyl (7S,1OR)-7-isopropyl-10-methyl-2,4-dioxaspiro[5.5]undecane-3-carboxylate], the activation at 5 µM in assay [4] came to 5%.

As for `CC(C)[C@@H]1CC[C@@H](C)CC1(CCO)CCO` [Compound 29, 2,2′-((2S,5R)-2-isopropyl-5-methylcyclohexane-1,1-diyl)bis(ethan-1-ol)], the activation at 5 µM in assay [4] was 26%.

For the compound `CCC(C)C1CCCCC12COC(C)OC2` (stereo not drawn) [Compound 31, 7-(sec-butyl)-3-methyl-2,4-dioxaspiro[5.5]undecane], the activation at 5 µM in assay [4] is -2%.

As to `CC(=O)OCC1(CO)C[C@H](C)CC[C@H]1C(C)C` (stereo partly drawn) [Compound 32, ((2S,5R)-1-(hydroxymethyl)-2-isopropyl-5-methylcyclohexyl)methyl acetate], the activation at 5 µM in assay [4] is 4%.

As for `CC1OCC2(CO1)CC(C)(C)CCC2C(C)C` (stereo not drawn) [Compound 33, 7-isopropyl-3,10,10-trimethyl-2,4-dioxaspiro[5.5]undecane], the activation at 5 µM in assay [4] was determined as 1%.

Take `CC(C)[C@@H]1CC[C@@H](C)CC1(C(C)O)C(C)O` (stereo partly drawn) [Compound 34, 1,1′-((2S,5R)-2-isopropyl-5-methylcyclohexane-1,1-diyl)bis(ethan-1-ol)]: the activation at 5 µM in assay [4] was 21%.

As to `C=C(C)[C@@H]1CC[C@@H](C)C[C@H]1C(CO)CO` [Compound 35, 2-((1R,2R,5R)-5-methyl-2-(prop-1-en-2-yl)cyclohexyl)propane-1,3-diol], the activation at 5 µM in assay [4] turned out to be 14%.

As for `C=C(C)[C@@H]1CC[C@@H](C)C[C@H]1C1COC(C)OC1` (stereo partly drawn) [Compound 36, 2-methyl-5-((1R,2R,5R)-5-methyl-2-(prop-1-en-2-yl)cyclohexyl)-1,3-dioxane], the activation at 5 µM in assay [4] stood at 6%.

In assay [3], `CC(C)[C@@H]1CC[C@@H](C)C[C@H]1C(CO)CO` [Compound 37, 2-((1R,2S,5R)-2-isopropyl-5-methylcyclohexyl)propane-1,3-diol] gave an EC50 of 70 µM. For the same compound, the activation at 5 µM in assay [4] stood at 65%.

As to `CC(C)[C@@H]1CC[C@@H](C)CC1(CO)COCc1ccccc1` (stereo partly drawn) [Compound 38, ((2S,5R)-1-((benzyloxy)methyl)-2-isopropyl-5-methylcyclohexyl) methanol], the activation at 5 µM in assay [4] is 8%.

Regarding `CC(C)[C@@H]1CC[C@@H](C)CC1(CO)C(=O)O` (stereo partly drawn) [Compound 39, (2S,5R)-1-(hydroxymethyl)-2-isopropyl-5-methylcyclohexane-1-carboxylic acid], in assay [4], the activation at 5 µM turned out to be 16%.

Take `CC1(C)CC(C)(C)CC(CO)(CO)C1` [Compound 40, (3,3,5,5-tetramethylcyclohexane-1,1-diyl)dimethanol]: the activation at 5 µM in assay [4] came to 8%.

As to `CC(C)[C@@H]1CC[C@@H](C)C[C@H]1OC(=O)CCC(=O)O` [Physcool ™, reference compound], the “% activation vs iciline” value in assay [1] is listed as -2%.

On to `CCNC(=O)C1CC(C)CCC1C(C)C` (stereo not drawn) [WS-3 ™, reference compound], for which, in assay [1] (concentration 119 μM), the “% activation vs iciline” value is 76%. In assay [3], the EC50 turned out to be 8 µM.

Turning to `CCOC(=O)CNC(=O)[C@@H]1C[C@H](C)CC[C@H]1C(C)C` [WS-5 ™, reference compound], in assay [1], the “% activation vs iciline” value is given as 73%. Moreover, the EC50 in assay [3] turned out to be 1 µM.

In the case of `C=C(C)[C@@H]1CC[C@@H](C)C[C@H]1O` [l-isopulegol, reference compound], the “% activation vs iciline” value in assay [1] (concentration 123 μM) worked out at 51%.

Regarding `CC(C)[C@@H]1CC[C@@H](C)C[C@H]1O` [l-menthol, reference compound], the “% activation vs iciline” value in assay [1] (concentration 114 μM) is 78%.

Regarding `CC1CCC(C(C)C)C(OC(=O)C(C)O)C1` (stereo not drawn) [menthyl lactate, reference compound], the “% activation vs iciline” value in assay [1] (concentration 116 μM) is given as 53%.
